Laboratory results: patent US7728146B2, “Enzyme inhibitors” (Probiodrug AG, priority 2006, dated 2010)
pIC50, pKi: −log10 of the molar value. Where a name gives a salt, the structure may show the parent alone.

Assays:
male Sprague Dawley rats = test: Circadian courses of activity, feeding and drinking behaviour; body weight, food and fluid consumption during chronic administration; type: in vivo, rat; settings: vs vehicle
Method: Example 130b as hydrochloride salt was dissolved in tap water in concentrations of 0.03, 0.1 and 0.3 mg/ml. Assuming a daily fluid intake of approx. 30 ml per animal (animal's weight: approx. 300 g), these concentrations should result in doses of approx. 3, 10 and 30 mg/kg/day. The solutions were prepared freshly every day. During chronic administration, solution offer was limited to 40 ml per day for each animal.
Imipramine was dissolved 0.5% Natrosol and administered once daily i.p. for 8 days (test group TG 11, see below) with a dose of 15 mg/kg/day in a volume of 1 ml/kg.
216 male Sprague Dawley rats. The animals were 6 weeks old at the start of the study. They were housed in groups of 4 animals (“acute animals”) or in single cages (“chronic animals”) at 12 h/12 h light/dark (start of the light phase at 2 a.m.), 20° C., 60% rH. Animals were provided by Elevage Janvier, France.
During the 7 days lasting period of chronic compound administration, animals were kept singly. On the first day they were kept in single Macrolon home cages. On the next day they were transferred to activity monitoring cages and kept there for 3 days. For the following 3 days they returned to their home cages (single housing).
Animals received the test compound chronically via the drinking fluid. The reference compound Imipramine was given i.p. (one administration per day, one hour before the respective tests). Fluid supply was restricted to 40 ml per day for all test groups. On the first day of chronic test compound exposure, animals were kept singly in standard single home cages to enable an individual assessment of test compound intake. On the second day, animals were transferred to infrared monitoring cages for 3 days. Food and fluid offer were the same as in the home cage. Measuring rearing activity near fluid bottles and food grid enabled an assessment of the time structure of food and water (compound) consumption. Behavioural observation started one hour before the beginning of the dark phase (2 p.m.). After 22 hours, body weight, food and fluid consumption were measured. 2 hours later, the next recording started.
Raw data were provided as computer files accompanied by written protocol sheets. As the animals were still adapting to the environment and administration the time courses of the following parameters were calculated only for the last day of registration: • Food and fluid intake (time %) • Number of feeding and […] bouts • Meal pattern parameters reflecting e.g. the duration and recurrence of feeding and drinking bouts • Total distance travelled (cm/min) • Small movements (cm/min) • Distance travelled with rapid locomotion (cm/min) • Distance travelled with slow locomotion (cm/min) • Immobility (time %) • Use of available space (%) • Locomotor stereotypies (score, first hour of the dark phase only) • Rearing (time %) • Number of rearing acts (N) Feeding and Drinking Bouts and Bout-Related Analysis:
On the basis of high-resolution infrared beam recordings, feeding and drinking is identified by means of beam interruption in the upper frame near to the positions of food or water. Feeding or drinking acts are then defined as temporally contingent behavioural pattern separated from each other by intervals not longer than 0.5 seconds. Normally, several acts form a feeding or drinking bout. The intervals within a bout are definitely shorter than between subsequent bouts. A threshold interval can be set to distinguish between intra-bout and inter-bout intervals.
Stereotyped locomotion was assessed by means of statistical comparisons between the observed locomotor sequences (as described by the movement from one of the 4×4 subsquares to another) and a “random walk”. The comparison is performed at 5 different levels:
The coefficient of locomotor stereotypies (SC, in %) at each level has a value of SC=0 when there are no regularities within the movement pattern (random walk). […]

DP9 = DP9 (Homo sapiens, UniProt Q86TI2); test: DP9 assay; type: biochemical; settings: for Selectivity DP9(IC50)/DPIV(Ki): ratio IC50 DP9 / Ki DP IV
Method: (§1) Determination of IC50 values for DPII and DP9 are done similarly as described for DP IV.
For DP9 Gly Pro-AMC is used as substrate in a final concentration of 0.25 mM.

[1] = system: liver cell carcinoma cell line Hep-G2; test: Cytotoxicity screening and LD50 determination on Hep-G2 (LDH, CytoTox-One); type: cell-based; settings: 100 μM; for Cytotox 100 μM (%) HEPG2 / Viability 100 μM (%) HEP-G2: 24 h; for Cytotox 100 μM (%) HEPG2: LDH activity in cell culture media, lysed untreated cells = 100%; for Viability 100 μM (%) HEP-G2: LDH of lysed cells, untreated control = 100%
Method: Cytotoxicity of the compounds may be screened using the liver cell carcinoma cell line Hep-G2.
After 24 h of cultivation in a 96 well plate (50 000 cells/well) compounds (dissolved in DMSO) are added and cytotoxicity and vitality of the cells are analysed after another 24 h of cultivation using the CytoTox-One Homogenoeous membrane toxicity assay (Promega).
Three concentrations (100 μM, 2 μM, 40 nM) of each compound are analysed in triplicates. The final DMSO concentration was 1%.
For cytotoxicity the LDH activity in the cell culture media after 24 h of incubation are analysed. The untreated control is set to 0% cytotoxicity. For the 100% value LDH activity of lysed untreated cells are analysed.
For viability cell culture media are removed from the cells and all cells are lysed using the lysis buffer. LDH activity is determined and untreated control is set to 100% viability.
For determination of LD50 the liver carcinoma cell line HEP-G2 and the neuroblastoma cell line SY5Y may be used. The effect of 8 serial dilutions of the compounds (highest concentration 1 mM) is investigated as described above.
The cytotoxicity of certain example compounds (in each case prepared by preparative synthesis) was screened using Hep-G2 cells. Compounds were tested in concentrations of 100 μM, 2 μM and 40 nM.

DPII = DPII (Homo sapiens, UniProt Q9UHL4); test: DPII assay; type: biochemical; settings: for Selectivity DPII(IC50)/DPIV(Ki): ratio IC50 DPII / Ki DP IV; for pIC50: sodium acetate buffer pH 5.5, Gly-Pro-AMC 1 mM
Method: as §1
For DPII instead of the HEPES buffer a 0.2 M sodium acetate buffer pH 5.5 is used. As substrate Gly-Pro-AMC is used in a final concentration of 1 mM.

DP IV [2] = molecular target: T1, DP IV (Homo sapiens, UniProt P27487); test: Ki and inhibition type, DP IV; type: biochemical; settings: compounds obtained by preparative synthesis
Method: Measurement of DP IV activities for Ki determination is carried out as described for IC50. For Ki determination samples were analysed in triplicates. 7 serial dilutions of the inhibitor (range calculated from the IC50 determination) in water are analyzed with 4 serial dilutions of the substrate.
Data are analysed by non-linear regression to the inhibitor equations using Graphit software. Ki-value and inhibition type are determined using the inhibitor equation (competitive, partiell competitive, non-competitive) which gives the best fitting results. […]

DP IV [3] = molecular target: T1, DP IV; test: DP IV inhibition IC50, parallel-synthesis compounds tested directly following synthesis (without purification); type: biochemical; design: IC50 DP4; other: tested directly following parallel synthesis, without purification; compounds of formula (Ib) from parallel synthesis, tested directly following synthesis; settings: DP IV inhibition; compounds of formula (Ib) from parallel synthesis, tested directly following synthesis (without purification); read-out: IC50
Outline: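 Porcine kidney or recombinant human enzyme (~40-50 μU/ml, HEPES buffer) hydrolysing Gly-Pro-pNA at room temperature, with 5% DMSO final; 11-point 1:2 dilutions from 100 μM final, in duplicate. pNA release read at 405 nm over ~18 min; slopes vs solvent control give residual activity, and IC50 comes from a 4-parameter fit.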

[4] = molecular target: dipeptidyl peptidase (DP IV) (UniProt P27487); test: Determination of IC50 against DP IV (hydrolysis of Gly-Pro-pNA); type: biochemical, porcine kidney or recombinant human; settings: compounds obtained by preparative synthesis
Method: Determination of IC50 Against DP IV
Substances are screened for inhibition of dipeptidyl peptidase (DP IV) by their ability to inhibit the hydrolysis of the DP IV specific substrate Glycyl-Prolyl-4-Nitroanilide (Gly-Pro-pNA). All compounds are diluted in DMSO and IC50 will be determined with 11 serial dilutions (1:2) starting with an final concentration of 100 μM. The final DMSO concentration in the assay is 5% (v/v). The method was automated using a Tecan Genesis Freedom liquid handler and a Genius Pro (Tecan) microplate reader.
A stock solution of 0.102 M HEPES is prepared. Ionic strength (I=0.32) is adjusted by KCl and pH (pH 7.6) by KOH.
2.16 mM solution of Gly-Pro-pNA in deionized water is prepared.
All samples are dissolved in DMSO preparing a 10 mM stock solution.
DP IV from porcine kidney (pDP IV) or recombinant human DP IV (rhDP IV) is diluted in HEPES buffer to a final activity of approximately 40-50 μU*ml^−1. The DP IV is stored in a cooling rack (4° C.) on the liquid handler.
The assay may becarried out at room temperature using Freedom liquid handler connected with a Genios Pro microplate reader. Each sample is measured in duplicate. Each sample stock solution is prediluted with DMSO in a ratio of 1:5 in a polypropylen 96-well plate. From this predilution 10 serial (1:2) dilutions in DMSO are prepared. 13.5 μl of the 11 DMSO dilutions and DMSO alone are transferred to the measurement microplate (duplicates) and 86.5 μl water, 100 μl HEPES buffer and 50 μl substrate solution are added to each well. The enzymatic reaction is started by addition of 20 μl enzyme solution to each well, and then the microplate is immediately transferred to the microplate reader.
After short mixing (20 s) the release of 4-Nitroanilin (pNA) is monitored at 405 nm for 30 cycles (approx. 18 min).
Post assay calculations are done by the Magellan (Tecan) and Graphit Software. The linear slopes are calculated for each well and averaged for the duplicates. The residue activities are calculated in relation to a sample containing only solvent instead of inhibitor and expressed in %. Residue activities are plotted against the log of inhibitor concentrations and IC50 is calculated by an 4-parameter fitting ranging from 0 to 100%.

Caco-2 monolayer = test: Caco-2 transport assay; type: in vitro ADME, human; settings: assessment of permeability and transport type
Method: (§2) The concentration of compounds in the Caco experiments may be determined from their potency to inhibit recombinant human DP IV.
(§3) Reaction is started by addition of 20 μl rhDP IV and release of pNA was monitored at 405 nm. Samples are analyzed in several dilutions (undiluted, 1:10, 1:[…]). Dilutions are done in the Caco assay buffer. Activity measured with Caco-assay buffer alone is set to 100% and inhibitor concentration is calculated from the dilutions resulting in 20 to 80% inhibition according to the equation for competitive inhibition.
(§4) [formula] • I=inhibitor concentration • v0=velocity of the reaction without inhibitor (Caco assay buffer alone) • vi=velocity of the reaction with inhibitor sample • Ki=Ki-value of the compound • DF=dilution factor of the sample Transport Assay
(§5) The human colon adenocarcinome cell line Caco-2 are grown in 6- or 24-transwell microplates (Costar) for 21 days with MEM-alpha containing 10% FBS and 0.5% Gentamycin (Invitrogen). After 21 days of cultivation integrity of the cell layer are assessed by measurement of the transepitelial electrical resistance.
(§6) Transport measurements are carried out in triplicates at a pH of 7.5. For each compound and direction (apical to basal (a-b), basal to apical (b-a)) two separate experiments are done. Samples are collected from the donor and acceptor compartments at the beginning of the experiment and after 60 min (for 6-well plates, Donor at 0 and 120 min, Acceptor at 15, 30, 60 and 120 min).
(§7) Samples are analyzed in several dilutions for their ability to inhibit human recombinant DP IV and compound concentrations may be calculated using the prior determined Ki-value (see above).
(§8) The permeability coefficient Papp is calculated according to the following equation:
(§9) [formula] • VA=Volume of the acceptor compartment • A=Area of the transwell membrane • t=sampling time • cAt=concentration in the acceptor compartment at sampling time • CDO=concentration in the donor compartment at t=0
(§10) Papp-values>1e-5 cm/s are assessed as good permeable, value<1e-6 cm/s as not permeable. Papp-values in between as medium permeable. Compounds where no significant difference were found between a-b and b-a transport are assessed to be passive transported.

Caco-2 transport assay = type: in vitro ADME, human; settings: human, Caco-2, pH 7.5; for Papp A→B: apical to basal; for Papp B→A: basal to apical
Method: as §2, §3, §4, §5, §6, §7, §8, §9, §10

[5] = circadian registration, Imipramine 15 mg/kg/day i.p., Example 130b approx. 3, 10, 30 mg/kg/day
[6] = Imipramine 15 mg/kg/day i.p., Example 130b hydrochloride approx. 3, 10, 30 mg/kg/day via drinking fluid

Chain of DP9 (Q86TI2 whole entry, species assumed): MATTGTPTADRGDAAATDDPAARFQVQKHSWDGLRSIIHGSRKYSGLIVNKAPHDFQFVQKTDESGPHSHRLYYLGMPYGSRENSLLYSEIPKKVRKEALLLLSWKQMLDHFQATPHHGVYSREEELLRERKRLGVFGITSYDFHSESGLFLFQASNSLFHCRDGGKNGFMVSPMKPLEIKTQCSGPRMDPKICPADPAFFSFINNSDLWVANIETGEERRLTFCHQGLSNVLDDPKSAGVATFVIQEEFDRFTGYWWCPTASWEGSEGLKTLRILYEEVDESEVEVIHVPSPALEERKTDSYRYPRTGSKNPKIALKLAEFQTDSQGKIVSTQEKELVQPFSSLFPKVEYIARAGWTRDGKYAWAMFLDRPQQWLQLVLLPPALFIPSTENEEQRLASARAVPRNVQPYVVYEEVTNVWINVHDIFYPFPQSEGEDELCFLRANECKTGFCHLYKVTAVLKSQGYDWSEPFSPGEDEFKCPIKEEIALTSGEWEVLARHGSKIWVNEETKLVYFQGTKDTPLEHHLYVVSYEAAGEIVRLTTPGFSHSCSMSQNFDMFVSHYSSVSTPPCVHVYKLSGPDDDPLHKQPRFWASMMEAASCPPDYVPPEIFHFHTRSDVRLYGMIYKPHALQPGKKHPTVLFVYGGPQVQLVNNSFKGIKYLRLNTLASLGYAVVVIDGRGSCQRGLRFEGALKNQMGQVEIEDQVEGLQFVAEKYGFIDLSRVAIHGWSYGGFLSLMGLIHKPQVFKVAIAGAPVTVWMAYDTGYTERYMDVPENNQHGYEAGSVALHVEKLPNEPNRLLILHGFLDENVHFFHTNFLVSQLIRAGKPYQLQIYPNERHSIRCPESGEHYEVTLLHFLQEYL
T1 sequence (P27487 whole entry): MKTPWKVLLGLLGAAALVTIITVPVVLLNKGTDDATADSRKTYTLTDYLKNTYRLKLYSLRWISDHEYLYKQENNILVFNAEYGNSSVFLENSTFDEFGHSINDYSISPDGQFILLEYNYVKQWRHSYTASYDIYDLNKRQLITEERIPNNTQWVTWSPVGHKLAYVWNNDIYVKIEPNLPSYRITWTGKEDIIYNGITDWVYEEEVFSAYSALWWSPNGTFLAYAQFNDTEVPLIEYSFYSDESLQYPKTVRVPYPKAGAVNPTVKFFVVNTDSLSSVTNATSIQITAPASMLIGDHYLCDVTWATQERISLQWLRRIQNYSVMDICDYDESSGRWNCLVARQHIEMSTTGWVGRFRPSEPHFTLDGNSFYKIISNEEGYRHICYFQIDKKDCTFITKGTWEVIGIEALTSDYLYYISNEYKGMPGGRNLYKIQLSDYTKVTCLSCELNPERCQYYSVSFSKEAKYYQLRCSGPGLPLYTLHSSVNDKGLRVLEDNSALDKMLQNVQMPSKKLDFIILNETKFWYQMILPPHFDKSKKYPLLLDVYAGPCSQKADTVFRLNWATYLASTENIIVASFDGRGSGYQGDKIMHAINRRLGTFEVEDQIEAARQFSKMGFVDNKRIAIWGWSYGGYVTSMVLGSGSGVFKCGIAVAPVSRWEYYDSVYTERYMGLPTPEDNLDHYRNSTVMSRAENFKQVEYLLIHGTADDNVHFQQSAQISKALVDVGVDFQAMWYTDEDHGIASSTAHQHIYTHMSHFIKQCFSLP

Row | SMILES | time immobile (male Sprague Dawley rats; circadian registration, Imipramine 15 mg/kg/day i.p.) | horizontal and vertical (locomotor) activity (male Sprague Dawley rats; [5]) | time accessing food and water (fluid) (male Sprague Dawley rats; [5]) | locomotor stereotypies (stereotypy index) (male Sprague Dawley rats; first hour of the dark phase, Imipramine: level 2, 3 and 4 stereotypies, Example 130b: usage of available space or stereotypy index) | body weight (gain) (male Sprague Dawley rats; [6]) | fluid intake (male Sprague Dawley rats; [6]) | food intake (male Sprague Dawley rats; [6]) | Selectivity DP9(IC50)/DPIV(Ki) (DP9) | Cytotox 100 μM (%) HEPG2 [1] | Viability 100 μM (%) HEP-G2 [1] | Selectivity DPII(IC50)/DPIV(Ki) (DPII) | pIC50 (DPII) | pKi (DP IV [2]) | pIC50 (DP IV [3]) | pIC50 [4] | Transport (Caco-2 monolayer) | Papp A→B (Caco-2 transport assay) | Papp B→A (Caco-2 transport assay) | pIC50 (DP9; Gly Pro-AMC 0.25 mM) | Observed cytotox ([1]; Hep-G2, observation of the cells)
1 | CN(C)CCCN1c2ccccc2CCc2ccccc21 [Imipramine, Imipramine Hydrochloride, reference compound] | spent more time immobile | clearly reduced | lower amount of time | reduction | significantly reduced | significantly reduced | significantly reduced |  |  |  |  |  |  |  |  |  |  |  |  | 
2 | NCc1c(-c2ccc(Cl)cc2Cl)ncn1Cc1ccccc1F [Example 112b, C-[5-(2,4-dichloro-phenyl)-3-(2-fluoro-benzyl)-3H-imidazol-4-yl]-methylamine] |  |  |  |  |  |  |  | 9,714 | 3.0% | 111.4% | 3,514 | 4.43 | 7.98 | 5.43 | 6.71 | good, passive | 44.8 ×10⁻⁶ cm/s | 42.1 ×10⁻⁶ cm/s |  | 
3 | NCc1c(-c2ccc(Cl)cc2Cl)ncn1C(CO)c1ccccc1 (stereo not drawn) [Example 126b, 2-[5-aminomethyl-4-(2,4-dichloro-phenyl)-imidazol-1-yl]-2-phenyl-ethanol] |  |  |  |  |  |  |  | 6,670 | 5.8% | 118.8% | 1,887 | 4.70 | 7.97 |  | 6.84 | good (Papp-values>1e-5 cm/s are assessed as good permeable) | 22.5 ×10⁻⁶ cm/s | 16.5 ×10⁻⁶ cm/s | 4.15 | 10% spheric
